The test system of the experiment is M. tuberculosis H37Rv (ATCC 27294). Description: In vitro anti-tuberculosis screening, BACTEC 460 radiometric system, percent inhibition of growth. It counts as cell-based, Mycobacterium tuberculosis. Particulars: for inhibition at 12.5 µg/mL: Mycobacterium tuberculosis.
Setting [1] is: Mtb H37Rv, 12.5 μg/mL, BACTEC 12B medium.
The mark [2] stands for this setting: Mtb H37Rv, drug concentration 12.5 μg/mL.
Where [3] appears, read: Mtb H37Rv, drug concentration 12.5 μg/mL, read-out: inhibition of the growth of Mtb.

Values joined by “and” are separate entries in the source; they are usually repeats but may differ in a detail not shown here. Equal values may be shown once. Read-outs that look alike come from different tables or passages of the source.

Consider `O=c1cc(-c2cccc(-c3ccc4c(=O)cc(-c5ccccc5)oc4c3)c2)oc2ccccc12` [Compound 162, 7-3′′′-Biflavone], for which, under setting [1], the “Activity % Inhibition at 12.5 μg/mL (biflavonoids)” value is listed as 0%.

`COc1ccc(-c2oc3cc(OC)cc(OC)c3c(=O)c2-c2c(-c3ccc(OC)cc3)oc3cc(OC)cc(OC)c3c2=O)cc1` [Compound 159, 3-3″-Biapigenin hexamethylether]: under “Mtb H37Rv, 12.5 μg/mL”, the “anti-TB activity in words” value is recorded as “completely devoid of activity”. The “Activity % Inhibition at 12.5 μg/mL (biflavonoids)” value under setting [1] was found to be 0%.

Consider `COc1cc(OC)c2c(=O)cc(-c3ccc(O)cc3)oc2c1` [Compound 132], for which, under setting [1], the “Activity % Inhibition at 12.5 μg/mL (flavones)” value came to 0%.

On to `O=C1CC(c2ccc(O)cc2)Oc2cc(O)c(-c3c(O)cc(O)c4c3OC(c3ccc(O)cc3)CC4=O)c(O)c21` (stereo not drawn) [Compound 168, Rhusflavanone], for which the “Activity % Inhibition at 12.5 μg/mL (biflavonoids)” value under setting [1] is recorded as 0%.

Turning to `O=C1CC(c2ccccc2)Oc2cc(I)ccc21` (stereo not drawn) [Compound 141], under setting [1], the “Activity % Inhibition at 12.5 μg/mL (flavanones)” value was determined as 9%.

For the compound `COc1ccccc1C=CC(=O)c1ccccc1O` [Compound 8], the “Activity % inhibition at 12.5 μg/mL (chalcones)” value under setting [1] was found to be 39%.

With `CN(C)c1ccc(/C=C/C(=O)c2ccccn2)cc1` [Compound 62], the “Activity % inhibition at 12.5 μg/mL (chalcone-like compounds)” value under setting [1] stood at 16%.

On to `COc1ccc(-c2oc3ccccc3c(=O)c2Br)cc1` [Compound 96], for which, under setting [1], the “Activity % Inhibition at 12.5 μg/mL (flavones)” value is 28%.

Turning to `COc1ccc(/C=C/C(=O)c2ccc(OC)cc2O)cc1` [Compound 9], the “Activity % inhibition at 12.5 μg/mL (chalcones)” value under setting [1] was determined as 32%.

As to `COc1ccc(-c2cc(=O)c3c(OC)cc(OC)c([C@@H]4C(=O)c5c(OC)cc(OC)cc5O[C@H]4c4ccc(OC)cc4)c3o2)cc1` [Compound 152, Volkensiflavone hexamethylether], the “Activity % Inhibition at 12.5 μg/mL (biflavonoids)” value under setting [1] was determined as 95%. Further, under setting [2], the “inhibition of the growth of Mtb” value was determined as 95%.

On to `CC(=O)Oc1ccc([C@@H]2CC(=O)c3c(cc(OC(C)=O)c(-c4c(OC(C)=O)cc5c(c4OC(C)=O)C(=O)C[C@@H](c4ccc(OC(C)=O)cc4)O5)c3OC(C)=O)O2)cc1` [Compound 174, Succedaneaflavanone hexaacetate], for which the “Activity % Inhibition at 12.5 μg/mL (biflavonoids)” value under setting [1] came to 0%.

In the case of `COc1ccc(-c2oc3c(I)cccc3c(=O)c2O)cc1` [Compound 113], the “Activity % Inhibition at 12.5 μg/mL (flavones)” value under setting [1] stood at 6%.

Consider `Nc1ncccc1/C=C/C(=O)c1cc2ccccc2cc1O` [Compound 74], for which the “Activity % inhibition at 12.5 μg/mL (chalcone-like compounds)” value under setting [1] worked out at 0%.

As to `O=c1cc(-c2ccccc2)oc2c(Br)cccc12` [Compound 77], under setting [1], the “Activity % Inhibition at 12.5 μg/mL (flavones)” value amounted to 66%.

Turning to `O=c1cc(-c2ccccc2)oc2cc(Cl)ccc12` [Compound 122], the “anti-TB activity in words” value (Mtb H37Rv, 12.5 μg/mL) was “weakly active or inactive”. Also, under setting [1], the “Activity % Inhibition at 12.5 μg/mL (flavones)” value is reported as 0%.

With `COc1ccc(-c2oc3cc(OC)cc(OC)c3c(=O)c2Br)cc1` [Compound 131], the “Activity % Inhibition at 12.5 μg/mL (flavones)” value under setting [1] turned out to be 0%.

As for `COc1ccc2c(c1)OC(c1ccccc1)C(C1C(=O)c3ccc(OC)cc3OC1c1ccccc1)C2=O` (stereo not drawn) [Compound 160, 3-3″-Bi-(7-methoxyflavanone)], under setting [1], the “Activity % Inhibition at 12.5 μg/mL (biflavonoids)” value worked out at 0%.

In the case of `O=C(/C=C/c1ccccc1)c1cc(I)ccc1O` [Compound 42], the “Activity % inhibition at 12.5 μg/mL (chalcones)” value under setting [1] worked out at 51%. Under setting [2], the “inhibition of the growth of Mtb” value was 51% and 52%.

For `O=C(/C=C/c1ccccc1)c1cccc(Br)c1O` [Compound 32], the “Activity % inhibition at 12.5 μg/mL (chalcones)” value under setting [1] is given as 79%. The “inhibition of the growth of Mtb” value under setting [2] came out at 79%.

`O=c1cc(-c2ccc(O)c(-c3c(O)cc(O)c4c(=O)cc(-c5ccc(O)cc5)oc34)c2)oc2cc(O)cc(O)c12` [Compound 164, Amentoflavone]: under “Mtb H37Rv, 12.5 μg/mL, BACTEC 12B medium, read-out: Activity % Inhibition at 12.5 μg/mL (biflavonoids)”, the inhibition at 12.5 µg/mL worked out at 0%.

As for `COc1c(-c2ccccc2)oc2ccc(Br)cc2c1=O` [Compound 89], under setting [1], the “Activity % Inhibition at 12.5 μg/mL (flavones)” value stood at 44%.

As for `CC(=O)Oc1ccc(C2Oc3cc(OC(C)=O)cc(OC(C)=O)c3C(=O)C2c2c(OC(C)=O)cc(OC(C)=O)c3c(=O)cc(-c4ccc(OC(C)=O)c(OC(C)=O)c4)oc23)cc1` (stereo not drawn) [Compound 175, Morelloflavone heptaacetate], under setting [1], the “Activity % Inhibition at 12.5 μg/mL (biflavonoids)” value came out at 0%.

`O=C1CC(c2ccc(O)c(O)c2)Oc2c1c(O)cc(OC1OC(CO)C(O)C(O)C1O)c2C1C(=O)c2c(O)cc(O)cc2OC1c1ccc(O)cc1` (stereo not drawn) [Compound 179, Xanthochymuside]: the “Activity % Inhibition at 12.5 μg/mL (biflavonoids)” value under setting [1] turned out to be 0%.

In the case of `COc1ccc2c(c1)OC(c1ccc(Cl)cc1)CC2=O` (stereo not drawn) [Compound 137], under setting [1], the “Activity % Inhibition at 12.5 μg/mL (flavanones)” value is reported as 48%.

As for `Nc1cccc(C(=O)/C=C/c2ccccc2I)c1` [Compound 41], the “Activity % inhibition at 12.5 μg/mL (chalcones)” value under setting [1] is 88%. Moreover, the “inhibition of the growth of Mtb” value under setting [2] worked out at 88%.

Regarding `CN(C)c1ccc(/C=C/C(=O)c2ccncc2)cc1` [Compound 68], the “Activity % inhibition at 12.5 μg/mL (chalcone-like compounds)” value under setting [1] is reported as 1%.

Consider `COc1ccc(C(=O)/C=C/c2ccncc2)cc1` [Compound 70], for which, under setting [1], the “Activity % inhibition at 12.5 μg/mL (chalcone-like compounds)” value was determined as 0%.

Turning to `O=C(/C=C/c1cccc(I)c1)c1cccc(Br)c1O` [Compound 51, 3′-bromo-2′-hydroxy-3-iodochalcone], the inhibition at 12.5 µg/mL under setting [3] amounted to 0%.

For `O=C(/C=C/c1ccc(I)cc1)c1ccccc1O` [Compound 46], under setting [1], the “Activity % inhibition at 12.5 μg/mL (chalcones)” value came to 21%. Moreover, the “inhibition of the growth of Mtb” value under setting [2] came out at 21%.

Regarding `O=C(/C=C/c1ccccc1Br)c1ccccc1O` [Compound 31], under setting [1], the “Activity % inhibition at 12.5 μg/mL (chalcones)” value is 83%. Besides, the “inhibition of the growth of Mtb” value under setting [2] came to 83%.

As for `O=C(/C=C/c1ccncc1)c1ccco1` [Compound 75], under setting [1], the “Activity % inhibition at 12.5 μg/mL (chalcone-like compounds)” value is 0%.

For `COc1ccc([C@@H]2CC(=O)c3c(OC)cc(OC)c([C@H]4C(=O)c5c(OC)cc(OC)cc5O[C@@H]4c4ccc(OC)cc4)c3O2)cc1` [Compound 153, GB-1a hexamethylether], under setting [1], the “Activity % Inhibition at 12.5 μg/mL (biflavonoids)” value was determined as 87%. In addition, the “inhibition of the growth of Mtb” value under setting [2] came to 87%.

`CC(=O)Oc1ccc([C@@H]2CC(=O)c3c(cc(OC(C)=O)c(-c4c(OC(C)=O)cc(OC(C)=O)c5c4O[C@H](c4ccc(OC(C)=O)cc4)CC5=O)c3OC(C)=O)O2)cc1` [Compound 173, Rhusflavanone hexaacetate]: the “Activity % Inhibition at 12.5 μg/mL (biflavonoids)” value under setting [1] turned out to be 0%.

For the compound `COc1ccc(-c2cc(=O)c3c(OC)cc(OC)cc3o2)cc1` [Compound 109], under setting [1], the “Activity % Inhibition at 12.5 μg/mL (flavones)” value is reported as 12%.

Regarding `O=c1c(O)c(-c2ccccc2)oc2ccc(I)cc12` [Compound 79], the “Activity % Inhibition at 12.5 μg/mL (flavones)” value under setting [1] is 64%.

`COc1ccc(-c2cc(=O)c3ccc(OC)cc3o2)cc1` [Compound 119]: the “Activity % Inhibition at 12.5 μg/mL (flavones)” value under setting [1] came to 0%.

Regarding `CC(=O)Nc1cccc(/C=C/C(=O)c2ccccc2O)c1` [Compound 17], the “Activity % inhibition at 12.5 μg/mL (chalcones)” value under setting [1] is 0%.

As to `O=c1cc(-c2cccc(-c3cccc4c(=O)cc(-c5ccccc5)oc34)c2)oc2ccccc12` [Compound 155, 3′-8′′-Biflavone], the “anti-TB activity in words” value (Mtb H37Rv, 12.5 μg/mL) is recorded as “moderate activity”. Further, under setting [1], the “Activity % Inhibition at 12.5 μg/mL (biflavonoids)” value came out at 49%.

In the case of “3′′′-Nitro-C3-O-C4′′′′--Biflavone [Compound 154]”, the “Activity % Inhibition at 12.5 μg/mL (biflavonoids)” value under setting [1] was found to be 61%.

For `O=C(/C=C/c1cc2ccccc2[nH]1)c1ccncc1` [Compound 64], the “Activity % inhibition at 12.5 μg/mL (chalcone-like compounds)” value under setting [1] was found to be 12%.

Consider `O=c1cc(-c2ccc(Br)cc2)oc2ccccc12` [Compound 97], for which, under “Mtb H37Rv, 12.5 μg/mL”, the “anti-TB activity in words” value is “weakly active or inactive”. Moreover, the “Activity % Inhibition at 12.5 μg/mL (flavones)” value under setting [1] is given as 26%. The “inhibition of the growth of Mtb” value under setting [2] is given as 26%.

For `COc1ccc(/C=C/C(=O)c2cc(C(=O)O)ccc2O)cc1` [Compound 16], the “Activity % inhibition at 12.5 μg/mL (chalcones)” value under setting [1] is reported as 0%.

In the case of `COc1ccc(/C=C/C(=O)c2c(O)cc(OC)cc2OC)cc1` [Compound 7], under setting [1], the “Activity % inhibition at 12.5 μg/mL (chalcones)” value was 40%. In addition, the “inhibition of the growth of Mtb” value under setting [2] is recorded as 40%.

As to `O=C(/C=C/c1ccccc1)c1cccc2ccccc12` [Compound 61], under setting [1], the “Activity % inhibition at 12.5 μg/mL (chalcone-like compounds)” value came out at 37%.

Regarding `O=C(/C=C/c1ccccc1)c1ccccc1O` [Compound 5, 2′-hydroxychalcone], the inhibition at 12.5 µg/mL runs as follows: (read-out: Activity % inhibition at 12.5 μg/mL (chalcones), Mtb H37Rv, 12.5 μg/mL, BACTEC 12B medium) 61%; (read-out: inhibition of the growth of Mtb, Mtb H37Rv, drug concentration 12.5 μg/mL) 61%.

For `O=C(c1ccccc1)c1ccc2c(=O)c(C(=O)c3ccccc3)c(-c3ccccc3)oc2c1` [Compound 110], under setting [1], the “Activity % Inhibition at 12.5 μg/mL (flavones)” value was 12%.

For the compound `O=c1cc(-c2cccc(Cl)c2)oc2ccccc12` [Compound 121], the “anti-TB activity in words” value (Mtb H37Rv, 12.5 μg/mL) was “weakly active or inactive”. In addition, the “Activity % Inhibition at 12.5 μg/mL (flavones)” value under setting [1] stood at 0%. The “inhibition of the growth of Mtb” value under setting [2] is 0%.

With `O=C1CC(c2ccccc2)Oc2cc(F)ccc21` (stereo not drawn) [Compound 143], the “Activity % Inhibition at 12.5 μg/mL (flavanones)” value under setting [1] amounted to 7%.

Consider `Nc1ccc(O)c(C(=O)/C=C/c2ccccc2)c1` [Compound 12], for which, under setting [1], the “Activity % inhibition at 12.5 μg/mL (chalcones)” value is 6%. Also, the “inhibition of the growth of Mtb” value under setting [2] is reported as 6%.

Consider `COc1ccc(/C=C/C(=O)c2c(O)cccc2OC)cc1` [Compound 2], for which the “Activity % inhibition at 12.5 μg/mL (chalcones)” value under setting [1] is given as 75%.

Turning to `O=C(O)c1ccc2c(c1)C(=O)CC(c1ccccc1)O2` (stereo not drawn) [Compound 146], the “Activity % Inhibition at 12.5 μg/mL (flavanones)” value under setting [1] is recorded as 0%.

For the compound `COc1ccc(-c2oc3cc(F)ccc3c(=O)c2OC(C)=O)cc1` [Compound 86], under setting [1], the “Activity % Inhibition at 12.5 μg/mL (flavones)” value worked out at 50%.

For the compound `COc1ccc(C2CC(=O)c3cc(C(=O)O)ccc3O2)cc1` (stereo not drawn) [Compound 145], the “Activity % Inhibition at 12.5 μg/mL (flavanones)” value under setting [1] is listed as 0%.

Take `O=c1c(O)c(-c2ccccc2)oc2ccccc12` [Compound 92, 3-hydroxyflavone]: the inhibition at 12.5 µg/mL is, setting by setting: (Mtb H37Rv, 12.5 μg/mL, BACTEC 12B medium, read-out: Activity % Inhibition at 12.5 μg/mL (flavones)) 38%; under setting [3], 38%.

Source of the values: patent US6677350B1, “Beta-fluoroethyl thiourea compounds and use” (priority 1999, dated 2004).
